Source: patent US6344473B1, “Imidazoles useful as nitric oxide synthase inhibitors” (G.D. Searle & Co., priority 2000, dated 2002)
Counter-ions that a name gives are not always drawn.

Experiments:
hiNOS = hiNOS (Homo sapiens, UniProt P35228); assay: Citrulline assay for nitric oxide synthase, human in vitro enzyme data, hiNOS; assay type: biochemical; conditions: human inducible NOS
hncNOS = hncNOS (Homo sapiens, UniProt P29475); assay: Citrulline assay for nitric oxide synthase, human in vitro enzyme data, hncNOS; assay type: biochemical; conditions: human neuronal constitutive NOS
hecNOS = hecNOS (Homo sapiens, UniProt P29474); assay: Citrulline assay for nitric oxide synthase, human in vitro enzyme data, hecNOS; assay type: biochemical; conditions: human endothelial constitutive NOS
[1] = test system: plasma nitrites induced by endotoxin (LPS); assay: Low Dose LPS in vivo low-endotoxin assay (plasma nitrites); conditions: mouse

| IC50 (hiNOS) [µM] | IC50 (hncNOS) [µM] | IC50 (hecNOS) [µM] | Structure (SMILES) | Low Dose LPS in vivo Effective Dose (p.o.), inhibition ([1]; 3 mg/kg/day p.o.) [% inh.] | Low Dose LPS in vivo Effective Dose (p.o.), inhibition ([1]; 10 mg/kg/day p.o.) [% inh.] |
| --- | --- | --- | --- | --- | --- |
| > 1000 | > 1000 | > 1000 | Cc1noc(=O)n1CCCC[C@H](NC(=O)OC(C)(C)C)C(=O)O [Example 1, αS-[[(1,1-dimethylethoxy)carbonyl]amino]-4,5-dihydro-3-methyl-5-oxo-1,2,4-oxadiazole-4-hexanoic acid] | – | – |
| – | – | – | Cc1noc(=O)n1CCCCC(N)C(=O)O (centres unmarked) [Example 2, αS-amino-4,5-dihydro-3-methyl-5-oxo-1,2,4-oxadiazole-4-hexanoic acid, monohydrochloride] | 39 | 42 |
| 124 | 200 | 1430 | CCOC(=O)[C@@H](N)CCCCn1c(C)noc1=O [Example 3, ethyl αS-amino-4,5-dihydro-3-methyl-5-oxo-1,2,4-oxadiazole-4-hexanoate, monohydrochloride] | – | – |
